PubChem BioAssay AID2060883 (Molecular Pharmacology Branch, DTP, NCI, 2025)

Test system: 843782-103-R-J1-PDC complex spheroid viability
Experiment: Anticancer human tumor 843782-103-R-J1-PDC patient-derived lung adenocarcinoma cell line growth inhibition [RAS]
Settings: for IC50: curve of first compound; for viability, T/C: stronger effect = lower value
Procedure, shortened: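 Agents were tested in combination matrices in half-log decrements from a top concentration at or near clinical Cmax (10 microM if undetermined). Targets were multi-cell spheroids of tumour lines plus HUVEC and MSC stromal cells.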
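Note: viability read after seven days of compound exposure.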

How did the IC50 (second compound 0.00316 µM) turn out when `CC1(O)CCCC1n1c(=O)c(C(F)F)cc2cnc(NC3CCN(S(C)(=O)=O)CC3)nc21` (centres undefined) + C=CC(=O)N1CCN(c2nc(OCC3CCCN3C)nc3c(F)c(-c4nc(N)cc(C)c4C(F)(F)F)c(Cl)cc23)C(C)C1 was run?
Its IC50 is 147 nM.

What about the IC50 (second compound 0.01 µM) of the same compound?
The IC50 was 152 nM.

And the IC50 (second compound 0.0316 µM)?
The IC50 was 96.4 nM.

And the IC50 (second compound 0.1 µM)?
Its IC50 is 126 nM.

And the IC50 (second compound 0.316 µM)?
The IC50 was 140 nM.

What about the IC50 (second compound 1 µM) of the same compound?
Its IC50 is 138 nM.

What about the viability, T/C (second compound 0.00316 µM, first compound 0.0316 µM) of the same compound?
Its viability, T/C is 84.9%.

And the viability, T/C (second compound 0.00316 µM, first compound 0.1 µM)?
Its viability, T/C is 61.6%.

What about the viability, T/C (second compound 0.00316 µM, first compound 0.316 µM) of the same compound?
The viability, T/C was 27.7%.

What about the viability, T/C (second compound 0.00316 µM, first compound 1 µM) of the same compound?
Its viability, T/C is 24.3%.

What about the viability, T/C (second compound 0.00316 µM, first compound 3.16 µM) of the same compound?
Its viability, T/C is 24.2%.

And the viability, T/C (second compound 0.00316 µM, first compound 10 µM)?
Its viability, T/C is 2.56%.

And the viability, T/C (second compound 0.01 µM, first compound 0.0316 µM)?
The viability, T/C was 81.2%.

What about the viability, T/C (second compound 0.01 µM, first compound 0.1 µM) of the same compound?
Its viability, T/C is 61.4%.

What about the viability, T/C (second compound 0.01 µM, first compound 0.316 µM) of the same compound?
The viability, T/C was 28.2%.

What about the viability, T/C (second compound 0.01 µM, first compound 1 µM) of the same compound?
The viability, T/C was 29.2%.

What about the viability, T/C (second compound 0.01 µM, first compound 3.16 µM) of the same compound?
The viability, T/C was 21.7%.

And the viability, T/C (second compound 0.01 µM, first compound 10 µM)?
The viability, T/C was 3.18%.

What about the viability, T/C (second compound 0.0316 µM, first compound 0.0316 µM) of the same compound?
The viability, T/C was 75.9%.

And the viability, T/C (second compound 0.0316 µM, first compound 0.1 µM)?
The viability, T/C was 49.9%.

And the viability, T/C (second compound 0.0316 µM, first compound 0.316 µM)?
The viability, T/C was 24%.

And the viability, T/C (second compound 0.0316 µM, first compound 1 µM)?
The viability, T/C was 27.5%.

And the viability, T/C (second compound 0.0316 µM, first compound 3.16 µM)?
The viability, T/C was 19.6%.

And the viability, T/C (second compound 0.0316 µM, first compound 10 µM)?
The viability, T/C was 2.81%.

And the viability, T/C (second compound 0.1 µM, first compound 0.0316 µM)?
The viability, T/C was 78.7%.

And the viability, T/C (second compound 0.1 µM, first compound 0.1 µM)?
The viability, T/C was 59.2%.

And the viability, T/C (second compound 0.1 µM, first compound 0.316 µM)?
Its viability, T/C is 24.4%.

And the viability, T/C (second compound 0.1 µM, first compound 1 µM)?
Its viability, T/C is 27.2%.

What about the viability, T/C (second compound 0.1 µM, first compound 3.16 µM) of the same compound?
Its viability, T/C is 23%.

What about the viability, T/C (second compound 0.1 µM, first compound 10 µM) of the same compound?
The viability, T/C was 2.61%.

And the viability, T/C (second compound 0.316 µM, first compound 0.0316 µM)?
The viability, T/C was 86%.

And the viability, T/C (second compound 0.316 µM, first compound 0.1 µM)?
Its viability, T/C is 58.8%.

And the viability, T/C (second compound 0.316 µM, first compound 0.316 µM)?
Its viability, T/C is 26.2%.

What about the viability, T/C (second compound 0.316 µM, first compound 1 µM) of the same compound?
The viability, T/C was 28.5%.

And the viability, T/C (second compound 0.316 µM, first compound 3.16 µM)?
The viability, T/C was 25.2%.

And the viability, T/C (second compound 0.316 µM, first compound 10 µM)?
Its viability, T/C is 2.69%.

And the viability, T/C (second compound 1 µM, first compound 0.0316 µM)?
Its viability, T/C is 84.1%.

And the viability, T/C (second compound 1 µM, first compound 0.1 µM)?
The viability, T/C was 54.1%.

What about the viability, T/C (second compound 1 µM, first compound 0.316 µM) of the same compound?
Its viability, T/C is 33.1%.

What about the viability, T/C (second compound 1 µM, first compound 1 µM) of the same compound?
Its viability, T/C is 25.1%.

And the viability, T/C (second compound 1 µM, first compound 3.16 µM)?
Its viability, T/C is 17.2%.

What about the viability, T/C (second compound 1 µM, first compound 10 µM) of the same compound?
Its viability, T/C is 2.07%.

How did the IC50 (second compound 0.00316 µM) turn out when `CC1(C)CCC(Nc2ncc(C(F)(F)F)c(-c3c[nH]c4c(P(C)(C)=O)c(C#N)ccc34)n2)CN1` (centres undefined) + C=CC(=O)N1CCN(c2nc(OCC3CCCN3C)nc3c(F)c(-c4nc(N)cc(C)c4C(F)(F)F)c(Cl)cc23)C(C)C1 was run?
The IC50 was 6.62 nM.

And the IC50 (second compound 0.01 µM)?
The IC50 was 7.23 nM.

And the IC50 (second compound 0.0316 µM)?
Its IC50 is 7.99 nM.

What about the IC50 (second compound 0.1 µM) of the same compound?
Its IC50 is 5.81 nM.

And the IC50 (second compound 0.316 µM)?
The IC50 was 6.75 nM.

What about the IC50 (second compound 1 µM) of the same compound?
Its IC50 is 6.96 nM.

And the viability, T/C (second compound 0.00316 µM, first compound 0.000949 µM)?
The viability, T/C was 85.3%.

And the viability, T/C (second compound 0.00316 µM, first compound 0.003 µM)?
Its viability, T/C is 72.8%.

And the viability, T/C (second compound 0.00316 µM, first compound 0.00949 µM)?
Its viability, T/C is 38.8%.

What about the viability, T/C (second compound 0.00316 µM, first compound 0.03 µM) of the same compound?
The viability, T/C was 25.7%.

What about the viability, T/C (second compound 0.00316 µM, first compound 0.0949 µM) of the same compound?
The viability, T/C was 13.6%.

What about the viability, T/C (second compound 0.00316 µM, first compound 0.3 µM) of the same compound?
The viability, T/C was 21.5%.

What about the viability, T/C (second compound 0.01 µM, first compound 0.000949 µM) of the same compound?
The viability, T/C was 89.1%.

And the viability, T/C (second compound 0.01 µM, first compound 0.003 µM)?
Its viability, T/C is 75.6%.

And the viability, T/C (second compound 0.01 µM, first compound 0.00949 µM)?
Its viability, T/C is 42%.

And the viability, T/C (second compound 0.01 µM, first compound 0.03 µM)?
Its viability, T/C is 23%.

And the viability, T/C (second compound 0.01 µM, first compound 0.0949 µM)?
Its viability, T/C is 18.5%.

And the viability, T/C (second compound 0.01 µM, first compound 0.3 µM)?
Its viability, T/C is 18.8%.

And the viability, T/C (second compound 0.0316 µM, first compound 0.000949 µM)?
The viability, T/C was 82.7%.

And the viability, T/C (second compound 0.0316 µM, first compound 0.003 µM)?
The viability, T/C was 81.2%.

And the viability, T/C (second compound 0.0316 µM, first compound 0.00949 µM)?
The viability, T/C was 44.5%.

And the viability, T/C (second compound 0.0316 µM, first compound 0.03 µM)?
The viability, T/C was 22.1%.

What about the viability, T/C (second compound 0.0316 µM, first compound 0.0949 µM) of the same compound?
The viability, T/C was 20.6%.

And the viability, T/C (second compound 0.0316 µM, first compound 0.3 µM)?
The viability, T/C was 18%.

And the viability, T/C (second compound 0.1 µM, first compound 0.000949 µM)?
The viability, T/C was 87.8%.

What about the viability, T/C (second compound 0.1 µM, first compound 0.003 µM) of the same compound?
Its viability, T/C is 70%.

And the viability, T/C (second compound 0.1 µM, first compound 0.00949 µM)?
Its viability, T/C is 35.7%.

And the viability, T/C (second compound 0.1 µM, first compound 0.03 µM)?
The viability, T/C was 18.3%.

And the viability, T/C (second compound 0.1 µM, first compound 0.0949 µM)?
Its viability, T/C is 19.3%.

And the viability, T/C (second compound 0.1 µM, first compound 0.3 µM)?
Its viability, T/C is 18.9%.

What about the viability, T/C (second compound 0.316 µM, first compound 0.000949 µM) of the same compound?
The viability, T/C was 87.3%.

What about the viability, T/C (second compound 0.316 µM, first compound 0.003 µM) of the same compound?
Its viability, T/C is 72.7%.

What about the viability, T/C (second compound 0.316 µM, first compound 0.00949 µM) of the same compound?
Its viability, T/C is 40.9%.

What about the viability, T/C (second compound 0.316 µM, first compound 0.03 µM) of the same compound?
Its viability, T/C is 21.7%.

What about the viability, T/C (second compound 0.316 µM, first compound 0.0949 µM) of the same compound?
The viability, T/C was 19.3%.

And the viability, T/C (second compound 0.316 µM, first compound 0.3 µM)?
The viability, T/C was 19.6%.

And the viability, T/C (second compound 1 µM, first compound 0.000949 µM)?
Its viability, T/C is 95.3%.

What about the viability, T/C (second compound 1 µM, first compound 0.003 µM) of the same compound?
The viability, T/C was 69.8%.

And the viability, T/C (second compound 1 µM, first compound 0.00949 µM)?
The viability, T/C was 45%.

What about the viability, T/C (second compound 1 µM, first compound 0.03 µM) of the same compound?
The viability, T/C was 23.5%.

And the viability, T/C (second compound 1 µM, first compound 0.0949 µM)?
The viability, T/C was 19.5%.

And the viability, T/C (second compound 1 µM, first compound 0.3 µM)?
Its viability, T/C is 23.7%.
